Measured values taken from ChEMBL document CHEMBL1124630, “Fluoronaphthyridines and quinolones as antibacterial agents. 1. Synthesis and structure-activity relationships of new 1-substituted derivatives” (J Med Chem, 1989).
≈ marks a conversion by molar mass, not a printed value.

Columns and labels:
Canis familiaris = assay: Area under the concentration/ time in plasma after oral administration in dog (25 mg/kg); assay type: ADME, organism-based, Canis lupus familiaris; details: in vivo
[1] = Maximum concentration in plasma after oral administration in dog (25 mg/kg); assay type: ADME, organism-based, Canis lupus familiaris; set-up: dose 25 mg/kg, route oral
[2] = Half-life in plasma after oral administration in dog (25 mg/kg); assay type: ADME, organism-based, Canis lupus familiaris
[3] = Urinary recovery after 24 hr in plasma after oral administration in dog (25 mg/kg); assay type: ADME, organism-based, Canis lupus familiaris; details: urine, read-out: UR
Escherichia coli [4] = assay: In vitro antibacterial activity against Escherichia coli (A 15119); assay type: functional; details: Escherichia coli; read-out: MIC
Enterobacter cloacae = assay: In vitro antibacterial activity against Enterobacter cloacae (A 9656); assay type: functional; details: Enterobacter cloacae; read-out: MIC
Klebsiella pneumoniae [5] = assay: In vitro antibacterial activity against Klebsiella pneumoniae (A 9664); assay type: functional; details: Klebsiella pneumoniae; read-out: MIC
Morganella morganii [6] = assay: In vitro antibacterial activity against Morganella morganii (A 15153); assay type: functional; details: Morganella morganii; read-out: MIC
[7] = Lethal dose of compound in OF1-strain female swiss mice after oral administration; assay type: toxicity, organism-based; details: mouse, in vivo
Pseudomonas aeruginosa [8] = assay: In vitro antibacterial activity against Pseudomonas aeruginosa (A 9843); assay type: functional; details: Pseudomonas aeruginosa; read-out: MIC
Pseudomonas aeruginosa [9] = assay: In vivo efficacy in systemic infection due to Pseudomonas aeruginosa (A 9843) in mice; assay type: functional; details: read-out: PD50
Staphylococcus aureus [10] = assay: In vitro antibacterial activity against Staphylococcus aureus Smith (A9537); assay type: functional; details: Staphylococcus aureus; read-out: MIC
Staphylococcus aureus [11] = assay: In vivo efficacy in systemic infection due to Staphylococcus aureus Smith (A 9537) in mice; assay type: functional; details: read-out: PD50
Escherichia coli [12] = assay: In vivo efficacy in systemic infection due to Escherichia coli (A 15119) in mice; assay type: functional; details: read-out: PD50
Klebsiella pneumoniae [13] = assay: In vivo efficacy in systemic infection due to Klebsiella pneumoniae (A 9664) in mice; assay type: functional; details: read-out: PD50
Morganella morganii [14] = assay: In vitro antibacterial activity against M. morganii(A 15153); assay type: functional

SMILES	AUC (Canis familiaris) [µg/mL]	Cmax [1] [ng/mL]	half-life [2] [min]	dose excreted at 24 h [3] [%]	MIC (Escherichia coli [4]) [µg/mL]	MIC (Enterobacter cloacae) [µg/mL]	MIC (Klebsiella pneumoniae [5]) [µg/mL]	MIC (Morganella morganii [6]) [µg/mL]	LD50 [7] [mg/kg]	MIC (Pseudomonas aeruginosa [8]) [µg/mL]	ED50 (Pseudomonas aeruginosa [9]) [mg/kg]	MIC (Staphylococcus aureus [10]) [µg/mL]	ED50 (Staphylococcus aureus [11]) [mg/kg]	ED50 (Escherichia coli [12]) [mg/kg]	ED50 (Klebsiella pneumoniae [13]) [mg/kg]	MIC (Morganella morganii [14]) [µg/mL]
CC(C)(C)n1cc(C(=O)O)c(=O)c2cc(F)c(N3CCNCC3)cc21	50	6400	264	17	0.06 (≈ 0.173 µM)	0.13 (≈ 0.374 µM)	0.13 (≈ 0.374 µM)	0.25 (≈ 0.72 µM)	> 2500	0.5 (≈ 1.44 µM)	18	0.06 (≈ 0.173 µM)	8	–	–	–
CC1(C)CC1n1cc(C(=O)O)c(=O)c2cc(F)c(N3CCNCC3)cc21 (configuration not stated)	–	–	–	–	1 (≈ 2.78 µM)	4 (≈ 11.1 µM)	2 (≈ 5.56 µM)	8 (≈ 22.3 µM)	–	32 (≈ 89 µM)	–	1 (≈ 2.78 µM)	–	–	–	–
C=C(C)n1cc(C(=O)O)c(=O)c2cc(F)c(N3CCNCC3)cc21	–	–	–	–	0.13 (≈ 0.392 µM)	0.06 (≈ 0.181 µM)	0.25 (≈ 0.754 µM)	0.13 (≈ 0.392 µM)	–	0.5 (≈ 1.51 µM)	–	0.5 (≈ 1.51 µM)	–	–	–	–
CCC(C)(C)n1cc(C(=O)O)c(=O)c2cc(F)c(N3CCNCC3)cc21	–	–	–	–	0.5 (≈ 1.38 µM)	1 (≈ 2.77 µM)	1 (≈ 2.77 µM)	4 (≈ 11.1 µM)	–	4 (≈ 11.1 µM)	–	0.25 (≈ 0.692 µM)	–	–	–	–
CC1(n2cc(C(=O)O)c(=O)c3cc(F)c(N4CCNCC4)cc32)CCC1	–	–	–	–	0.25 (≈ 0.696 µM)	1 (≈ 2.78 µM)	2 (≈ 5.56 µM)	0.5 (≈ 1.39 µM)	–	8 (≈ 22.3 µM)	–	0.5 (≈ 1.39 µM)	–	–	–	–
O=C(O)c1cn(C2CC=CC2)c2cc(N3CCNCC3)c(F)cc2c1=O	–	–	–	–	1 (≈ 2.8 µM)	8 (≈ 22.4 µM)	1 (≈ 2.8 µM)	8 (≈ 22.4 µM)	–	8 (≈ 22.4 µM)	–	2 (≈ 5.6 µM)	–	–	–	–
C=C(C)n1cc(C(=O)O)c(=O)c2cc(F)c(N3CCNCC3)nc21	–	–	–	–	0.13 (≈ 0.391 µM)	0.25 (≈ 0.752 µM)	0.13 (≈ 0.391 µM)	0.5 (≈ 1.5 µM)	–	2 (≈ 6.02 µM)	20	0.5 (≈ 1.5 µM)	15	–	–	–
CC1CCC1n1cc(C(=O)O)c(=O)c2cc(F)c(N3CCNCC3)cc21 (configuration not stated)	–	–	–	–	2 (≈ 5.56 µM)	32 (≈ 89 µM)	4 (≈ 11.1 µM)	16 (≈ 44.5 µM)	–	32 (≈ 89 µM)	–	4 (≈ 11.1 µM)	–	–	–	–
O=C(O)c1cn(C2CCC2)c2cc(N3CCNCC3)c(F)cc2c1=O	–	–	–	–	0.13 (≈ 0.376 µM)	1 (≈ 2.9 µM)	0.13 (≈ 0.376 µM)	0.5 (≈ 1.45 µM)	–	1 (≈ 2.9 µM)	–	0.5 (≈ 1.45 µM)	–	–	–	–
O=C(O)c1cn(C2CC2)c2c(F)c(N3CCNCC3)c(F)cc2c1=O	–	–	–	–	0.03 (≈ 0.0859 µM)	0.06 (≈ 0.172 µM)	0.06 (≈ 0.172 µM)	0.008 (≈ 0.0229 µM)	–	0.25 (≈ 0.716 µM)	–	0.13 (≈ 0.372 µM)	–	–	–	–
CC(C)(C)n1cc(C(=O)O)c(=O)c2cc(F)c(N3CCNCC3)nc21	50	5800	288	12	0.015 (≈ 0.0431 µM)	0.06 (≈ 0.172 µM)	0.13 (≈ 0.373 µM)	–	> 2500	1 (≈ 2.87 µM)	12	0.06 (≈ 0.172 µM)	1.1	2.4	5	0.25 (≈ 0.718 µM)
CC(C)n1cc(C(=O)O)c(=O)c2cc(F)c(N3CCNCC3)cc21	–	–	–	–	0.5 (≈ 1.5 µM)	2 (≈ 6 µM)	1 (≈ 3 µM)	0.25 (≈ 0.75 µM)	–	1 (≈ 3 µM)	–	1 (≈ 3 µM)	–	–	–	–
O=C(O)c1cn(Cc2ccccc2)c2cc(N3CCNCC3)c(F)cc2c1=O	–	–	–	–	0.25 (≈ 0.655 µM)	0.5 (≈ 1.31 µM)	0.5 (≈ 1.31 µM)	4 (≈ 10.5 µM)	–	0.5 (≈ 1.31 µM)	–	0.5 (≈ 1.31 µM)	–	–	–	–
CC1(n2cc(C(=O)O)c(=O)c3cc(F)c(N4CCNCC4)cc32)CC1	–	–	–	–	0.06 (≈ 0.174 µM)	0.5 (≈ 1.45 µM)	0.25 (≈ 0.724 µM)	0.25 (≈ 0.724 µM)	–	0.5 (≈ 1.45 µM)	–	0.25 (≈ 0.724 µM)	–	–	–	–
